How the values were obtained:
MELC 745A-DS19 cells = test: Induction of terminal differentiation of murine erythroleukemia cells (benzidine reactivity); type: cell-based; details: for Optimal Conc.: Table 1; for Benzidine Reactive Cells: at optimal concentration
Protocol: MELC 745A-DS19 cells and the variants of MELC derived from this cell line, namely, the vincristine-resistant MELC V3.17 and VCR.C(2)15 cell lines (26), and the dimethylsulfoxide-resistant cell line, DR10 (39), were maintained in alpha minimal essential medium containing 10% fetal calf serum (16). Cell cultures for all experiments were initiated with cells in logarithmic growth phase (day 2 cultured cells) at a density of 10^5 cells/ml. Inducer compounds were added in the final concentrations indicated below, dissolved in culture medium without fetal calf serum unless otherwise indicated. Cell density and benzidine reactively were determined as described (16).
(§1) Commitment to terminal differentiation, characterized by limited cell division (colony size<32 cells) and accumulation of hemoglobin (benzidine reactive colonies) was assayed by a colony cloning assay using 2% methylcellulose as described (25) (see Table 1 for results). HL-60 human leukemia cells, derived from peripheral blood leukocytes of a patient with acute promyelocytic leukemia (40). Induced differentiation of HL-60 cells assayed by determining the proportion of cells that developed the capacity to reduce nitroblue tetrazolium (NBT) (41) (see Table 2 for results).

[1] = tested on: HL-60 human leukemia cells; test: Induction of Differentiation of HL-60 (NBT reduction); type: cell-based; details: for Optimal Conc.: HL-60, Table 2; for NBT Positive: HL-60, at optimal concentration
Protocol: as §1

Row | Structure (SMILES) | Optimal Conc. (MELC 745A-DS19 cells) | Benzidine Reactive Cells (MELC 745A-DS19 cells) | Optimal Conc. [1] | NBT Positive [1]
1 | O=C(CCCCCCC(=O)Nc1cccc(F)c1)NO [compound 33] | 1 µM | 25% | – | –
2 | O=C(CCCCCCC(=O)Nc1c(F)cc(F)cc1F)Nc1c(F)cc(F)cc1F [compound 63] | 125 µM | 35% | – | –
3 | Nc1ccccc1NC(=O)CCCCCCC(=O)NO [compound 28] | 20 µM | 54% | – | –
4 | CC(CCC(=O)NO)CCC(=O)NO [compound 68] | – | 56% | – | –
5 | O=C(CCCCCCC(=O)Nc1ccccc1Br)NO [compound 38] | 8 µM | 45% | – | –
6 | COc1ccccc1NC(=O)CCCCCCC(=O)NO [compound 51] | 8 µM | 36% | – | –
7 | O=C(CCCCCCC(=O)Nc1cc(F)c(F)cc1F)NO [compound 42] | 8 µM | 36% | – | –
8 | O=C(CCCCCCC(=O)Nc1cc(F)c(F)c(F)c1)NO [compound 48] | 8 µM | 55% | – | –
9 | O=C(CCCCCCCC(=O)Nc1ccccc1)NO [compound 4] | 20 µM | 8% | – | –
10 | O=C(CCCCCC(=O)Nc1ccccc1)NO [compound 2] | 20 µM | 84% | 7 µM | 22%
11 | O=C(CCCCCCC(=O)Nc1cc(F)ccc1F)NO [compound 49] | 4 µM | 70% | – | –
12 | CC(CCCCC(C)C(=O)N(C)C)C(=O)N(C)C (stereo not shown) [compound 67] | – | 90% | – | –
13 | O=C(CCCCCCC(=O)N1CCCCC1)NO [compound 17] | – | 30% | – | –
14 | O=C(CCCCCC(CCCCCC(=O)NO)C(=O)NO)NO [compound 69] | – | 40% | – | –
15 | O=C(CCCCCCC(=O)Nc1c(F)c(F)c(F)c(F)c1F)NO [compound 46] | 31 µM | 53% | – | –
16 | [N-]=[N+]=Nc1ccc(NC(=O)CCCCCCC(=O)NO)cc1 [compound 31] | 2 µM | 47% | 2.5 µM | 7%
17 | O=C(O)CCCCCCC(=O)Nc1ccc([N+](=O)[O-])cc1 [compound 8] | – | 32% | – | –
18 | O=C(CCCCCCC(=O)Nc1ccc([N+](=O)[O-])cc1)Nc1ccc([N+](=O)[O-])cc1 [compound 65] | 25 µM | 14% | – | –
19 | O=C(CCCCCCC(=O)Nc1ccccc1Cl)NO [compound 39] | 4 µM | 34% | – | –
20 | N#Cc1ccccc1NC(=O)CCCCCCC(=O)NO [compound 23] | 16 µM | 65% | – | –
21 | O=C(CCCCCCC(=O)Nc1ccc(F)cc1F)Nc1ccc(F)cc1F [compound 59] | 500 µM | 54% | – | –
22 | O=C(CCC(F)(F)CCC(=O)NO)NO [compound 70] | – | 19% | – | –
23 | O=C(CCCCCCC(=O)Nc1c(F)cc(F)cc1F)NO [compound 44] | 16 µM | 47% | – | –

Row | Structure (SMILES) | Optimal Conc. (MELC 745A-DS19 cells) | Benzidine Reactive Cells (MELC 745A-DS19 cells) | Optimal Conc. [1] | NBT Positive [1]
24 | O=C(CCCCCCC(=O)NCc1ccccc1)NO [compound 19] | – | 24% | – | –
25 | COc1cccc(NC(=O)CCCCCCC(=O)NO)c1 [compound 52] | 6 µM | 38% | – | –
26 | O=C(CCCCC(=O)Nc1ccccc1)NO [compound 1] | 80 µM | 70% | – | –
27 | O=C(CCCCCCC(=O)NC1CCCCC1)NO [compound 16] | – | 35% | – | –
28 | O=C(CCCCCCC(=O)Nc1c(F)ccc(F)c1F)Nc1c(F)ccc(F)c1F [compound 62] | 250 µM | 28% | – | –
29 | O=C(CCCCCCC(=O)Nc1cccc([N+](=O)[O-])c1)NO [compound 24] | 5 µM | 30% | – | –
30 | O=C(CCCCCCC(=O)Nc1c(F)cccc1F)Nc1c(F)cccc1F [compound 60] | 100 µM | 21% | – | –
31 | O=C(CCCCCCC(=O)Nc1c(F)c(F)c(F)c(F)c1F)Nc1c(F)c(F)c(F)c(F)c1F [compound 64] | 125 µM | 13% | – | –
32 | O=C(O)CCCCCCC(=O)NO [compound 12] | – | 35% | – | –
33 | O=C(NO)c1ccc(C(=O)Nc2ccccc2)cc1 [compound 55] | – | 53% | – | –
34 | CN(C)C(=O)CCCCCCC(=O)NO [compound 11] | – | 53% | – | –
35 | O=C(CCCCCCC(=O)Nc1cccc(C(F)(F)F)c1)NO [compound 26] | 30 µM | 30% | 6 µM | 27%
36 | CC(C)(C)ONC(=O)CCCCCCC(=O)NO [compound 18] | – | 38% | – | –
37 | O=C(CCCCCCC(=O)Nc1ccc(F)cc1F)NO [compound 45] | 6 µM | 60% | – | –
38 | O=C(CCCCCCCCC(=O)Nc1ccccc1)NO [compound 5] | 20 µM | 15% | – | –
39 | CONC(=O)CCCCCCC(=O)NO [compound 15] | – | 43% | – | –
40 | O=C(CCCCCCC(=O)Nc1ccc(C(F)(F)F)cc1)NO [compound 27] | 5 µM | 47% | – | –
41 | N#Cc1cccc(NC(=O)CCCCCCC(=O)O)c1 [compound 6] | – | 44% | 20 µM | 30%
42 | O=C(CCCCCCC(=O)Nc1ccc(Br)cc1)NO [compound 40] | 1.6 µM | 47% | – | –
43 | O=C(CCCCCCC(=O)Nc1ccc(F)c(F)c1)NO [compound 47] | 4 µM | 61% | – | –
44 | COc1ccc(NC(=O)CCCCCCC(=O)NO)cc1 [compound 53] | 6 µM | 37% | – | –
45 | N#Cc1ccc(NC(=O)CCCCCCC(=O)O)cc1 [compound 7] | – | 52% | 20 µM | 21%
46 | N#Cc1cccc(NC(=O)CCCCCCC(=O)NO)c1 [compound 22] | 5 µM | 55% | 1.7 µM | 28%

Row | Structure (SMILES) | Optimal Conc. (MELC 745A-DS19 cells) | Benzidine Reactive Cells (MELC 745A-DS19 cells) | Optimal Conc. [1] | NBT Positive [1]
47 | CNC(=O)c1ccc(NC(=O)CCCCCCC(=O)NO)cc1 [compound 37] | 30 µM | 16% | – | –
48 | CC(CCCCCC(C)C(=O)N(C)C)C(=O)N(C)C (stereo not shown) [compound 66] | – | 80% | – | –
49 | N#Cc1ccc(NC(=O)CCCCCCC(=O)NO)cc1 [compound 21] | 7 µM | 70% | 2 µM | 6%
50 | O=C(CCCCCCC(=O)Nc1cc(F)cc(F)c1)NO [compound 50] | 2 µM | 73% | – | –
51 | O=C(CCCCCCC(=O)Nc1cccc(F)c1F)NO [compound 41] | 8 µM | 24% | – | –
52 | O=C(CCCCCCC(=O)Nc1ccc(OCc2ccccc2)cc1)NO [compound 35] | 4 µM | 20% | – | –
53 | O=C(O)CCCCCCC(=O)NC1CCCCC1 [compound 9] | – | 20% | – | –
54 | O=C(CCCCCCC(=O)Nc1ccc(F)cc1)NO [compound 34] | 4 µM | 43% | – | –
55 | COC(=O)CCCCCCC(=O)NO [compound 13] | – | 17% | – | –
56 | O=C(CCCCCCC(=O)Nc1c(F)ccc(F)c1F)NO [compound 43] | 31 µM | 53% | 2 µM | 20%
57 | O=C(CCCCCCC(=O)Nc1cccc(Cl)c1)NO [compound 30] | 2 µM | 33% | – | –
58 | N#CCc1ccc(NC(=O)CCCCCCC(=O)NO)cc1 [compound 29] | 1 µM | 30% | 1 µM | 15%
59 | O=C(O)CCCCCCC(=O)Nc1ccc(OCc2ccccc2)cc1 [compound 10] | 250 µM | 26% | – | –
60 | O=C(CCCCCCC(=O)Nc1cc(F)cc(F)c1)Nc1cc(F)cc(F)c1 [compound 61] | 125 µM | 31% | – | –
61 | CN(C(=O)CCCCCCC(=O)NO)c1ccccc1 [compound 54] | – | 40% | – | –
62 | O=C(CCCCCCC(=O)Nc1ccccc1)NO [compound 3] | – | 70% | 1 µM | 21%
63 | N#CCCCCCC(=O)NO [compound 14] | – | 30% | – | –
64 | O=C(CCCCCCC(=O)Nc1ccccc1F)NO [compound 32] | 4 µM | 65% | – | –
65 | O=C(CCCCCCC(=O)Nc1ccc(C(=O)NO)cc1)Nc1ccc(C(=O)NO)cc1 [compound 57] | 8 µM | 10% | – | –
66 | N#CCc1ccc(NC(=O)CCCCCCC(=O)Nc2ccc(CC#N)cc2)cc1 [compound 58] | 50 µM | 25% | – | –
67 | O=C(CCCCCCC(=O)Nc1ccc([N+](=O)[O-])cc1)NO [compound 25] | 0.8 µM | 30% | 3 µM | 18%
68 | COC(=O)c1ccc(NC(=O)CCCCCCC(=O)NO)cc1 [compound 36] | 4 µM | 28% | 1 µM | 32%

— patent USRE38506E1, “Potent inducers of terminal differentiation and methods of use thereof” (Sloan-Kettering Institute for Cancer Research, priority 1991, dated 2004)
